In patent publication US20130197480A1, “METHODS AND SYSTEMS FOR DELIVERY OF LIVE CELLS” (PALOMAR MEDICAL TECHNOLOGIES, INC., priority 2012, published 2013):

Test system: Human fibroblast cells in culture
Assay: Common laser pre-treatment compounds incubated 45 min with cultured human fibroblasts, visual inspection
Conditions: for Viability/Inspection 24 hrs / Viability/Inspector 1 week: cells rinsed, fresh media; for Viability/Inspection 24 hrs: observed 24 hours post exposure; for Viability/Inspector 1 week: observed one week post exposure; for Viability/nspection 45 min: visual inspection after 45 minutes incubation with compound
Procedure: AG07999 human skin fibroblasts (HSF; Coriell, Camden, N.J.) were grown to confluence in minimal essential media (MEM; Gibco, Grand Island, N.Y.) supplemented with 10% FBS (Hyclone, Logan, Utah), 20 mM L-glutamine, and 20 mM Glutamax™ (Gibco). Cells were maintained in an incubator at 37° C. and 5% CO2 and serially passaged with trypsin digestion at a 1:3 ratio as needed.
This example describes in vitro (in silico) testing of compounds added to human fibroblast cell cultures to determine any detrimental effects to the cells.
The remaining compositions and mixtures were tested as they are expected to be common treatments that might be used for numbing or cleansing of skin prior to laser treatment and cell delivery, or coagulation compounds, that are available in most physician offices. […] In addition, the delivery vehicle for SRF and lidocaine were tested to determine which vehicle (cream, lotion, petrolatum, lipoderm) was least destructive to the cells.

Compound	Viability/Inspection 24 hrs	Viability/Inspector 1 week	Viability/nspection 45 min
CNC[C@H](O)c1ccc(O)c(O)c1 [Epinephrine 1:10,000,000, Epinephrine]	Normal	Confluent/overgrown	Normal
CNC[C@H](O)c1ccc(O)c(O)c1 [Epinephrine 1:100,000, Epinephrine]	Normal	Confluent/overgrown	Slight change in morphology,
CCN(CC)CC(=O)Nc1c(C)cccc1C [Lidocaine 0.5%, Lidocaine]	Normal	Confluent/overgrown	Normal
